Results as given in US6172097A, “Spiro imidazoline compounds” (Adir et Compagnie, priority 1998, dated 2001).

Key:
[1] = target: T1, noradrenaline reuptake sites (Rattus norvegicus, UniProt Q63380); assay: Affinity for noradrenaline reuptake sites in the rat, competition with [3H]-nisoxetine on frontal cortex membranes; format: binding; conditions: 2 nM [3H]-nisoxetine, 4 hours at 4° C, pH 7.4
T1 construct: The membranes are prepared from the frontal cortex of the rat; from tissue; host or cells: rat frontal cortex membranes
Protocol: Determination of the Affinity For Noradrenaline Reuptake Sites in the Rat
The affinity was determined by competition experiments with [^3 H]-nisoxetine. The membranes are prepared from the frontal cortex of the rat and are incubated in triplicate with 2 nM [^3 H]-nisoxetine and the product to be tested in a final volume of 0.5 ml, for 4 hours at 4° C. The incubation buffer contains 50 mM TRIS-HCl (pH 7.4), 120 mM NaCl and 5 mM KCl. The non-specific binding is determined using 10 μM desipramine.
(§1) At the end of incubation, the incubation medium is filtered through WHATMAN GF/B filters impregnated with 0.1% of polyethyleneimine, and washed three times with 5 ml of cooled buffer. The radioactivity retained on the filters is determined by liquid scintillation counting. The binding isotherms are analysed by non-linear regression.

serotonin reuptake sites = target: T2, serotonin reuptake sites (Rattus norvegicus, UniProt P31652); assay: Affinity for serotonin reuptake sites in the rat, competition with [3H]-paroxetine on frontal cortex membranes; format: binding; conditions: 0.25 nM [3H]-paroxetine, 2 hours at 25° C, pH 7.4
T2 construct: The membranes are prepared from the frontal cortex of the rat; from tissue; host or cells: rat frontal cortex membranes
Protocol: Determination of the Affinity For Serotonin Reuptake Sites in the Rat
The affinity was determined by competition experiments with [^3 H]-paroxetine. The membranes are prepared from the frontal cortex of the rat and are incubated in triplicate with 0.25 nM [^3 H]-paroxetine and the cold ligand in a final volume of 0.4 ml, for 2 hours at 25° C. The incubation buffer contains 50 mM TRIS-HCl (pH 7.4), 120 mM NaCl and 5 mM KCl. The non-specific binding is determined using 10 μM citalopram.
as §1

α2-adrenergic receptors = target: T3, α2-adrenergic receptors (Rattus norvegicus, UniProt P22909); assay: Affinity for α2-adrenergic receptors in the rat, competition with [3H]-RX 821,002 on cerebral cortex membranes; format: binding; conditions: 0.4 nM [3H]-RX 821,002, 60 minutes at 22° C, pH 7.5
T3 construct: The membranes are prepared from the cerebral cortex of the rat; from tissue; host or cells: rat cerebral cortex membranes
T3 sequence (P22909 1-465): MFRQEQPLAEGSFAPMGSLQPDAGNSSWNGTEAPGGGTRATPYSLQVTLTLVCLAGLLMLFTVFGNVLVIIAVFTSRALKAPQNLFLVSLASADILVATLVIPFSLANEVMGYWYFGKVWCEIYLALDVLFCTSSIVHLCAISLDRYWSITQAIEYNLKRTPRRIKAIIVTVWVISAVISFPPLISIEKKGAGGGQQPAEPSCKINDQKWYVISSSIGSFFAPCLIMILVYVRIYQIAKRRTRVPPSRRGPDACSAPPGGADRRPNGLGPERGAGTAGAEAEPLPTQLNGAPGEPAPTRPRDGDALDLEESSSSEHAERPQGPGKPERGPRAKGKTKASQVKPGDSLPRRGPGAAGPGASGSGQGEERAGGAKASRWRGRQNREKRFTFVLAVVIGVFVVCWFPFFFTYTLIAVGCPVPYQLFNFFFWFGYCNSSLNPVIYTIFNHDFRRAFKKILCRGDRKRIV
Protocol: Determination of the Affinity For α2 -Adrenergic Receptors in the Rat
The affinity was determined by competition experiments with [^3 H]-RX 821,002. The membranes are prepared from the cerebral cortex of the rat and are incubated in triplicate with 0.4 nM [^3 H]-RX 821,002 and the product to be tested in a final volume of 1.0 ml, for 60 minutes at 22° C. The incubation buffer contains […] TRIS-HCl (pH 7.5), 1 mM EDTA and 100 μM GppNHp. The non-specific binding is determined using 10 μM phentolamine.
as §1

α2-adrenergic = conditions: described in U.S. Pat. No. 5,017,584; cited from earlier work
monoamine reuptake = conditions: described in U.S. Pat. No. 5,017,584; cited from earlier work

T2 sequence (P31652 whole entry): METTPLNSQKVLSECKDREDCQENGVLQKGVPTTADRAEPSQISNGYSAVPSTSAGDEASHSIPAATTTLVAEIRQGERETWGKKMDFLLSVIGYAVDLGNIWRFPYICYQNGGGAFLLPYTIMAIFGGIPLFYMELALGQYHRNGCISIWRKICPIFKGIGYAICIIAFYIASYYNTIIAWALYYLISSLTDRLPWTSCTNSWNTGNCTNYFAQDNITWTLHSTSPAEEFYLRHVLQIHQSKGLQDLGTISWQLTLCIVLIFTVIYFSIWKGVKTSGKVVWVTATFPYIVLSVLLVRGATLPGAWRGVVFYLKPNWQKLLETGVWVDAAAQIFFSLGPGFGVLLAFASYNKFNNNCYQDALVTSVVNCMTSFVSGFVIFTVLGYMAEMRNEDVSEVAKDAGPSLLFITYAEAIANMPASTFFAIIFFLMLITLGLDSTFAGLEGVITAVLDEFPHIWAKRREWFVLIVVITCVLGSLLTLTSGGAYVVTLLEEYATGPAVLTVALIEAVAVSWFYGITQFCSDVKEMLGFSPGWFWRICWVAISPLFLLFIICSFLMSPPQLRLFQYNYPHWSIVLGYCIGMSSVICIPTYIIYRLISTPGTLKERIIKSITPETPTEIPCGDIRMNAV
T1 sequence (Q63380 1-617): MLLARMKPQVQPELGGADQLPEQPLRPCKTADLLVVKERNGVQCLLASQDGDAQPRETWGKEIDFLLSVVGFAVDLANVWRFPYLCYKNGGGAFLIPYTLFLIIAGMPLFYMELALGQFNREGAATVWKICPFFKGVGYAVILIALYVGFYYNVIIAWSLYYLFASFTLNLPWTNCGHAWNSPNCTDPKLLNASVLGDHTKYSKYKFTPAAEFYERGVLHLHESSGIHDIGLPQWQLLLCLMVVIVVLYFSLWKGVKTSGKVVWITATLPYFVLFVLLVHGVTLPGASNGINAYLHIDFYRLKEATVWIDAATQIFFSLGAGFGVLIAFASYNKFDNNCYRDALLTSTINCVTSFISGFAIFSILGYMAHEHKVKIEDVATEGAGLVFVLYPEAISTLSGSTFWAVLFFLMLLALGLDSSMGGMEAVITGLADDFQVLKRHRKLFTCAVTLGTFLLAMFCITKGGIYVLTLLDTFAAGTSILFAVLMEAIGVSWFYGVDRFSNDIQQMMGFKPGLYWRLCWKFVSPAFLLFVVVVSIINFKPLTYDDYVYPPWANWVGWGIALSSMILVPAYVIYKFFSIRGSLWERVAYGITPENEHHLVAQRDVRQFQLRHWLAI

**Q.** For `C1=NC[C@@]2(CC[C@@H]3Cc4ccccc4C[C@H]3C2)N1` (relative stereo) [Example 1, Spiro[(1,3-diazacyclopent-1-ene)-5: 2'(S)-(trans-1',2',3',4',4'a(R),9',9'a(S),10'-octahydroanthracene)]fumarate and spiro [(1,3-diazacyclopent-1-ene)-5: 2'(R)-(trans-1',2',3',4',4'a(S),9',9'a(R),10'-octahydroanthracene)]fumarate], which Ki [1] is on record?
**A.** 0.2 µM

**Q.** And the Ki (serotonin reuptake sites)?
**A.** 0.0158 µM

**Q.** And the Ki (α2-adrenergic receptors)?
**A.** 0.01 µM

**Q.** What does the source list for `C1=C(CC2=NCCN2)CCc2ccccc21` [napamezole]?
**A.** α2-adrenergic antagonist activity (in words) (α2-adrenergic): α2-adrenergic antagonist activity; monoamine reuptake-blocking activity (in words) (monoamine reuptake): monoamine reuptake-blocking activity
